# From US20150133516A1, “Methods and Compositions for Treating ADHD” (priority 2013, published 2015)
# Columns and labels:
# [1] = tested on: spontaneously hypertensive rats (SHR); experiment: delayed gratification response paradigm in SHR animal model of ADHD; type: in vivo, rat; settings: 5, 10, 25 or 50 mg/kg over twenty-one days
# Source text: In this study, spontaneously hypertensive rats (SHR) are used as an animal model for ADHD. The SHR animal model is described in Russell et al., 2000, Behavioral Brain Research, 117: 69-74; Russell, 2001, Metab. Brain Dis., 16: 143-149; and Sagvolden et al., 1992, Behav. Neural Biol., 58: 103-112. The study consists of two groups of rats: normal and SHR. Each group is further divided into two subgroups: placebo and AR08. The AR08 subgroup is further divided into four subgroups and each subgroup is administered 5, 10, 25, or 50 mg/kg of AR08. The AR08 is administered to the rats over a period of twenty-one days. The rats are from the normal and SHR groups are trained in the delayed gratification response paradigm as described in Charrier et al., 1996, Pharmacology and Biochemistry and Behavior, 54: 149-157. In this paradigm, rats learn to choose between five food pellets delivered after 30 seconds and one food pellet delivered after 5 seconds. Normal rats learn to choose the five food pellets delivered after 30 seconds at a higher frequency.
# α2 receptors = experiment: receptor binding affinities / selectivity against other molecular targets
# Method: (§1) The pharmacological activity and selectivity of these compounds can be determined using published test procedures. […] (See, e.g., The Alpha-2 Adrenergic Receptors, L. E. Limbird, ed., Humana Press, Clifton, N.J.) The following in vivo assays are typically conducted in rodents or other species. Central nervous system activity is determined by measuring locomotor activity as an index of sedation. (See, e.g., Spyraki, C. & H. Fibiger, “Clonidine-induced Sedation in Rats: Evidence for Mediation by Postsynaptic Alpha-2 Adrenoreceptors”, Journal of Neural Transmission, Vol. 54 (1982), pp. 153-163). Nasal decongestant activity is measured using rhinomanometry as an estimate of nasal airway resistance. […] Antiglaucoma activity is determined by measuring intraocular pressure. […] Antidiarrheal activity is determined by measuring the ability of the compounds to inhibit prostaglandin-induced diarrhea. […] Efficacy in treating irritable bowel syndrome is determined by measuring the ability of compounds to reduce the stress-induced increase in fecal output. […] Antiasthma activity is determined by measuring the effect of the compound on bronchoconstriction associated with pulmonary challenges such as inhaled antigens. […] Activity in cough is determined by measuring the number and latency of the cough response to respiratory challenges such as inhaled citric acid. […]
# α2 adrenergic receptors = experiment: alpha 2/alpha1 functional selectivity (in vitro functional potencies); type: biochemical
# Method: as §1
# clinical = settings: human, in vivo
SMILES,amount of time required by SHR rats to choose five food pellets delivered after 30 seconds at a higher frequency [1],binding to targets other than α2 receptors (α2 receptors),selectivity for the α2 adrenergic receptors (α2 receptors; versus a wide range of other molecular targets),alpha 2/alpha1 functional selectivity (α2 adrenergic receptors),half-life (clinical)
"Cc1c(N=C2NCCN2)cc(C#N)c2[nH]cnc12 [AR08, N-(4,5-Dihydro-1H-imidazol-2-yl)-7-cyano-4-methyl-1H-benzimidazol-5-amine acetate]",reduced,–,–,–,–
"Cc1c(N=C2NCCN2)cc(C#N)c2[nH]cnc12 [Compound I, N-(4,5-Dihydro-1H-imidazol-2-yl)-7-cyano-4-methyl-1H-benzimidazol-5-amine]",–,no relevant binding,highly selective,about 70 fold,26 to 40 h
